# Laboratory results from patent US20060089408A1, “Method of treating blepharospasm with a prostaglandin derivative” (priority 2004, published 2006).
# Values joined by “and” are separate entries in the source; they are usually repeats but may differ in a detail not shown here. Identical values can stand only once.
# Tested on: patients with blepharospasm
# Experiment: Observational prospective case series of 21 consecutive patients with blepharospasm treated with Latanoprost
# Type: in vivo, human
# Description: It is the inventor's unique discovery that latanoprost improves some forms of blepharospasm. Over a period of three years starting from 2000, 21 patients with various forms of blepharospasm were treated with latanoprost. In more than 75% of the cases observed, the symptoms of blepharospasm were much improved ranging from mild resolution to complete improvement.
# Observational prospective case series of 21 consecutive patients comprising mostly Asian descent with blepharospasm were treated with Latanoprost for a mean follow-up period of 1.5 years. Assessment of therapy was made by symptomatic evaluation and clinical examination. Severity of patient's initial symptoms ranged from myokimia to blepharospasm with facial dystonia.
# The patients were pooled from the Los Angeles County metropolitan area and the Pacific Rim and all of the patients are of Chinese descent. The patients were excluded if they had secondary causes of blepharospasm such as light sensitivity, lid hygiene (blepharitis), dry eyes, and emotional or physical psychological stressors.
# Therapeutic intervention involved administration of one drop of Latanoprost in the affected eye at night. Adverse effects were assessed by the patient's subjective feedback and physician's examination. Outcome assessment was determined mainly by subjective reporting by the patient.
# Table 1 illustrates the physician's grading scale, wherein grade I signified blepharospasm isolated just to the eyes; Grade II described blepharospasm with some form of facial dystonia; and Grade III described blepharospasm with facial dystonia extending to the neck region
# Table 2 illustrates patient's subjective evaluation of improvement that subjective opinion of improvement is on a scale ranging from 0 to 10, where zero indicated no improvement and 10 indicated complete resolution.
# Table 3 illustrates demographics and clinical data of the patients involved in the above clinical study. In Table 3, F represent female, M represent male, duration represents duration of treatment, OU represents blepharospasm in both eyes, OD represents blepharospasm in right eye only, and OS represents blepharospasm in left eye. Date start illustrates the date starting treatment of prostaglandin derivatives, improvement illustrates the time required for first noticeable improvement, while scale imp represents scale of improvement according to the subjective evaluation grading as shown in Table 2.
compound,measurement,setting,value
"CC(C)OC(=O)CCC/C=C\C[C@@H]1[C@@H](CC[C@@H](O)CCc2ccccc2)[C@H](O)C[C@@H]1O [Latanoprost, isopropyl-(Z)-7[(1R,2R,3R,5S)3,5-dihydroxy-2-[(3R)-3-hydroxy-5-phenylpentyl]cyclopentyl]-5-heptenoate]",patients who reported moderate to complete resolution of symptoms after treatment,"21 consecutive patients, mean follow-up 1.5 years",over 75%
same,"cases in which symptoms of blepharospasm were much improved, ranging from mild resolution to complete improvement","21 patients with various forms of blepharospasm, three years starting from 2000",more than 75%
same,change in spasm of eyelids and face,"Case 1, 30 years history, right eye, 1.5 ug per day, after 3 weeks of treatment",considerable decrease in spasm of their eyelids and face
same,patients who noted subjective improvement in their blepharospasm,"after treatment, 21 patients",19 of 21
same,patients who reported no change,"after treatment, 21 patients",2 patients
same,duration of treatment required before effects were seen,general statement on the series,approximately 2 months
same,Improvement (time required for first noticeable improvement),"individual patient, one drop in the affected eye at night",2 months (13×) and 1 months (6×)
same,"Scale imp (scale of improvement, patient's subjective evaluation grading)","individual patient, scale 0 to 10: 0 no improvement, 5 50% improvement, 10 complete resolution, one drop in the affected eye at night",5 (6×) and 10 (2×) and 8 (6×) and 7 and 9 (3×) and 6 and 0 (2×)
same,time at which noticeable improvements occurred after initiation of treatment,whole series of 21 patients,1-2 months
same,average amount of improvement,"whole series, subjective scale 0 to 10",6.95
